Assay results from US5972976A, “Aminostilbazole derivative and medicine” (priority 1994, dated 1999).
≈ marks a conversion by molar mass, not a printed value. Like-named read-outs stand apart in the source and are kept apart here.

Key:
tubulin = details: J. Med. Chem. 1991, 34, 2579; cited from earlier work
[1] = test system: KB (human nasopharynx carcinoma); assay: In vitro anticancer effect (MTT), KB cell line; type: cell-based; details: KB cells, 72 hours, read-out: IC50 (50% cell growth-inhibitory concentration)
Experimental: (§1) In Vitro anticancer effects on KB (human nasopharynx carcinoma), Colon 38 (mouse colon cancer), and WiDr (human colorectal cancer) cell lines
(§2) Each of KB, Colon 38, and WiDr cell lines were respectively cultured using 10% fetal calf serum-supplemented D-MEM medium (Nissui Pharmaceutical). Each monolayer of cells was exfoliated with a 50:50 (v/v) mixture of 0.25% trypsin and 0.02% ethylenediaminetetracetic acid and after inactivation of trypsin, the cells were collected by centrifuging at 800 rpm for 3 minutes and suspended in the same medium as above. Using a hemocytometer, the number of the cells in the suspension were counted. The suspension was diluted with the medium to 5×10^4 cells/ml and distributed to a 96-well flat-bottomed plate, 100 μl per well.
(§3) The test drug was first dissolved in dimethyl sulfoxide at a concentration of 2 mg/ml and diluted with the above medium to 20 μg/ml. Using this solution for the highest concentration, a doubling dilution series was prepared and 100 μl of each dilution was added to the above cell suspension.
(§4) The plate was then incubated under 5% CO2 -air at 37° C. for 72 hours. Then, a 5 mg/ml solution of MTT [3-(4,5-dimethylthiazol-2-yl)-2,5-diphenyltetrazolium bromide] was added to the plate, 30 μl per well and the reaction was carried out under 5% CO2 -air at 37° C. for 4 hours. After the reaction, the solution in each well was aspirated off and 100 μl/well of dimethyl sulfoxide was added. After 5 minutes of shaking, the absorbance at 540 nm was measured with a Multiscan (Titertek) and the 50% cell growth-inhibitory concentration (IC50) was calculated.

[2] = test system: Colon 38 (mouse colon cancer); assay: In vitro anticancer effect (MTT), Colon 38 cell line; type: cell-based; details: Colon 38 cells, 72 hours, read-out: IC50 (50% cell growth-inhibitory concentration)
Experimental: as §1, §2, §3, §4

[3] = test system: WiDr (human colorectal cancer); assay: In vitro anticancer effect (MTT), WiDr cell line; type: cell-based; details: WiDr cells, 72 hours, read-out: IC50 (50% cell growth-inhibitory concentration)
Experimental: as §1, §2, §3, §4

microtubule protein = assay: Microtubule polymerization-inhibitory activity; type: biochemical; details: porcine brain microtubule protein, 37° C., pH 6.8, 350 nm; read-out: 50% inhibitory concentration against microtubule protein polymerization
Experimental: Microtubule polymerization-inhibitory activity Microtubule polymerization-inhibitory activity
A microtubule protein (a mixed solution of microtubule protein and microtubule-bound protein) was purified from a crude porcine brain extract according to the method of Williams et al. [Method in Enzymology, 85, 36, 1982] to isolate and the microtubule polymerization inhibitory activity of the compound of the invention was studied. The microtubule protein solution was diluted to 4 mg/ml as purified microtubule protein with GTP (guanosine-5'-triphosphate)-added reaction buffer (pH 6.8) {100 mM MES [2-(N-morpholinoethanesulfonic acid], 0.5 mM MgCl2 -1 mM EGTA (ethylene glycol bis(β-aminoethyl ether)-N,N,N',N'-tetracetic acid), 1 mM GTP} under ice-cooling and after degassing in ice, the test drug was added. Using a spectrophotometer maintained at 37° C., the absorbance of the system at 350 nm was measured at 2-minute intervals for 30 minutes to construct a polymerization curve and the concentration corresponding to 50% inhibition of microtubule protein polymerization was calculated. As the test drug, the compound of Example 3A was used.

[4] = test system: WiDr tumor cells transplanted in nude mice; assay: Growth inhibitory activity against WiDr tumor cells transplanted in nude mice; type: in vivo; details: oral; for Growth inhibition rate at day 16 after initiation of administration: once daily
Source text: Growth inhibitory activity against WiDr tumor cells transplanted in nude mice The tumor subcutaneously subcultured in nude mice (BALB/c nu/nu, male) aged 5-7 weeks were excised. After removal of the skin and connective tissue around the tumor, the tumor mass was split to remove the central necrotic tissue and, then, cut into cubes with a 2 mm side. One cube was loaded into a grafting needle and transplanted subcutaneously in the right thoracic region of the nude mouse. The major and minor diameters of the tumor were measured with calipers and the tumor volume was calculated by means of Equation 1. Starting when the volume had reached about 100 mm^3, the mice were divided into 6 individuals per group and the test drug suspended in 0.5% methylcellulose solution was administered orally by gastric gavage once daily.
Volume=1/2×major diameter×(minor diameter)^2Equation 1
The tumor volume was determined by the above method at predetermined intervals. From the tumor volume thus calculated, the growth rate was calculated by means of Equation 2. Then, using Equation 3, the growth inhibition rate in each drug treatment group relative to the control group was calculated.
Growth rate=tumor volume at day n/tumor volume at initiation of administration Equation 2
Growth inhibition rate (%)=(1-growth rate in drug treatment group/growth rate in control group)×100 Equation 3
As the test compound, the compound of Example 3A was used.

[5] = test system: Colon-26 (mouse colon cancer) cells transplanted in mice; type: in vivo, mouse (BALB/c, male); details: oral, once daily for 8 days
Experimental: Anticancer activity against Colon-26 (mouse colon cancer) cells transplanted in mice
Using an injection syringe, Colon-26 cells cultured in vitro were transplanted subcutaneously in a dose of 5×10^5 /animal in the right thoracic region of BALB/c mice (5 weeks old, male). As in Test Example 3, the mice were divided into groups of 6 when the tumor volume had reached about 150 mm^3. Starting the following day, the test drug suspended in 0.5% methylcellulose solution was administered orally by gastric gavage once daily for 8 days. The tumor volume was measured at a predetermined interval by the same method as in Test Example 3 and the tumor growth inhibition rate in each drug treatment group relative to the control group was calculated. As the test compound, the compound of Example 3A was used.

[6] = test system: mouse monocytic leukemia P-388 cell line; assay: In vivo anticancer activity against mouse monocytic leukemia P-388 cell line; parameters: species or system mouse (CDF1); details: oral, twice (following day and after 5 days)
Experimental: In vivo anticancer activity against mouse monocytic leukemia P-388 cell line
A suspension of tumor cells was transplanted intraperitoneally in CDF1 mice in a dose of 10^6 cells/animal. On the following dav and after 5 days, or twice, the test drug suspended in 0.5% methylcellulose solution was administered orally. The experiment was performed in 8-12 mice for each control group and 6 mice for each drug treatment group.
For evaluation, the median survival time in days was determined for each drug treatment group (T) and control group (C) and T/C (%) was calculated.

[7] = Acute toxicity, single oral administration; details: mouse, in vivo, mortality after 2 weeks, probit method
Experimental: Male 5-week-old CDF1 mice were used. After the compound of Example 3B or 34 was orally administered once, the mortality rate was investigated after 2 weeks and the LD50 value was calculated by the probit method. […] The high safety of the compound of the invention is obvious.

Row | IC50 [1] | IC50 [2] | IC50 [3] | Structure (SMILES) | T/C (median survival time, treated/control) ([6]; 25 mg/kg) | T/C (median survival time, treated/control) ([6]; 50 mg/kg) | T/C (median survival time, treated/control) ([6]; 100 mg/kg) | T/C (median survival time, treated/control) ([6]; 200 mg/kg) | further results
1 | – | – | – | COc1ccc(/C=C\c2cc(OC)c(OC)c(OC)c2)cc1 [(Z)-3,4,5-trimethoxy-4'-methoxystilbene] | – | – | – | – | tubulin polymerization-inhibitory activity (tubulin): have tubulin polymerization-inhibitory activity
2 | 0.44 µg/mL (≈ 1.2 µM) | 0.75 µg/mL (≈ 2.05 µM) | 0.45 µg/mL (≈ 1.23 µM) | COc1ccc(S(=O)(=O)Nc2ncccc2/C=C/c2ccccc2)cc1 [Example 1, (E)-2-[[(p-Methoxyphenyl)sulfonyl]amino]-3-(2-phenyl-ethenyl)pyridine] | – | – | – | – | –
3 | 4.86 µg/mL (≈ 13.3 µM) | 6.48 µg/mL (≈ 17.7 µM) | 4.81 µg/mL (≈ 13.1 µM) | COc1ccc(S(=O)(=O)Nc2ccccc2/C=C\c2cccnc2)cc1 [Example 2 (cis), 3-[2-[2-[[(p-Methoxyphenyl)sulfonyl]amino]phenyl]ethenyl]pyridine] | – | – | – | – | –
4 | 0.1 µg/mL (≈ 0.273 µM) | 0.15 µg/mL (≈ 0.409 µM) | 0.09 µg/mL (≈ 0.246 µM) | COc1ccc(S(=O)(=O)Nc2ccccc2/C=C/c2cccnc2)cc1 [Example 2 (trans), 3-[2-[2-[[(p-Methoxyphenyl)sulfonyl]amino]phenyl]ethenyl]pyridine] | – | – | – | – | –
5 | – | – | – | COc1ccc(S(=O)(=O)Nc2ccccc2/C=C/c2ccncc2)cc1.Cl [Example 3B, (E)-4-[2-[2-[[(p-Methoxyphenyl)sulfonyl]amino]phenyl]ethenyl]pyridine Hydrochloride] | 116% | 126% | 168% | 221% | LD50 at 336 h [7]: 510 mg/kg
6 | 0.12 µg/mL (≈ 0.327 µM) | 0.16 µg/mL (≈ 0.437 µM) | 0.16 µg/mL (≈ 0.437 µM) | COc1ccc(S(=O)(=O)Nc2ccccc2/C=C/c2ccccn2)cc1 [Example 4, (E)-2-[2-[2-[[(p-Methoxyphenyl)sulfonyl]amino]phenyl]ethenyl]pyridine] | – | – | – | – | –
7 | – | – | – | COc1ccc(S(=O)(=O)Nc2ccccc2/C=C/c2cc[n+]([O-])cc2)cc1 [Example 20, (E)-4-[2-[2-[[(p-Methoxyphenyl)sulfonyl]amino]phenyl]ethenyl]pyridine 1-oxide] | 135% | 115% | 180% | 195% | –
8 | – | – | – | COc1ccc(S(=O)(=O)N(CCO)c2ccccc2/C=C/c2ccncc2)cc1 [Example 34, (E)-4-[2-[2-[N-(2-Hydroxyethyl)-N-[(p-methoxyphenyl)sulfonyl]amino]phenyl]ethenyl]pyridine] | 105% | 124% | 167% | 210% | LD50 at 336 h [7]: 754 mg/kg
9 | – | – | – | COc1ccc(S(=O)(=O)N(CCO)c2ccccc2/C=C/c2cc[n+]([O-])cc2)cc1 [Example 49, (E)-4-[2-[2-[N-(2-Hydroxyethyl)-N-[(p-methoxyphenyl)sulfonyl]amino]phenyl]ethenyl]pyridine 1-oxide] | – | – | 185% | 220% | –
10 | – | – | – | COc1ccc(S(=O)(=O)N(C(C)=O)c2ccccc2/C=C/c2cc[n+]([O-])cc2)cc1 [Example 57, (E)-4-[2-[2-[N-Acetyl-N-[(p-methoxyphenyl)sulfonyl]amino]phenyl]ethenyl]pyridine 1-oxide] | 115% | 160% | 215% | 250% | –

Row | Structure (SMILES) | IC50 [1] | IC50 [2] | IC50 [3] | T/C (median survival time, treated/control) ([6]; 25 mg/kg) | T/C (median survival time, treated/control) ([6]; 50 mg/kg) | T/C (median survival time, treated/control) ([6]; 100 mg/kg) | T/C (median survival time, treated/control) ([6]; 200 mg/kg) | further results
11 | COc1ccc(S(=O)(=O)Nc2ccccc2/C=C/c2ccncc2)cc1 [Example 3A, (E)-4-[2-[2-[[(p-Methoxyphenyl)sulfonyl]amino]phenyl]ethenyl]pyridine] | 0.0026 µg/mL (≈ 0.0071 µM) | 0.0031 µg/mL (≈ 0.00846 µM) | 0.0025 µg/mL (≈ 0.00682 µM) | – | – | – | – | IC50 (microtubule protein): 11.2 µM; Growth inhibition rate at day 16 after initiation of administration ([4]; 10 mg/kg/day): 16.4%; Growth inhibition rate at day 16 after initiation of administration ([4]; 30 mg/kg/day): 57.0%; death by the end of the administration period ([4]; 100 mg/kg, once daily for 14 days): no death occurred; Growth inhibition rate at day 16 after initiation of administration ([4]; 100 mg/kg/day): 81.7%; Growth inhibition rate at day 13 after initiation of administration ([5]; 25 mg/kg/day): 44.8%; Growth inhibition rate at day 13 after initiation of administration ([5]; 50 mg/kg/day): 95.3%
